In publication PMC8472786, “Inhibitory Effects of Artificial Sweeteners on Bacterial Quorum Sensing” (International Journal of Molecular Sciences, 2021) one finds Kd data, which are given here for three compounds.

Where a SMILES comes first, the peptide text is derived from it.

For this assay, the target named is T1, LasR (Pseudomonas aeruginosa, UniProt P25084).
T1 construct: full-length LasR
T1 sequence (P25084 whole entry): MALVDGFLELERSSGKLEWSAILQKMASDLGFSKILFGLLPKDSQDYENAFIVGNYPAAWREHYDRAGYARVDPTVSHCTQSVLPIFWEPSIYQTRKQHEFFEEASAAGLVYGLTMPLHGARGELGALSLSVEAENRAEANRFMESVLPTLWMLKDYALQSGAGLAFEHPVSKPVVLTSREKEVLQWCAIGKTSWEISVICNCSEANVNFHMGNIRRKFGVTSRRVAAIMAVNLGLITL
In words: microscale thermophoresis with fluorescently labeled purified LasR. The format is binding. (In general: MST reads how a fluorescent partner responds to local heating, with and without ligand.)
For `OC[C@H]1O[C@H](O[C@]2(CCl)O[C@H](CCl)[C@@H](O)[C@@H]2O)[C@H](O)[C@@H](O)[C@H]1Cl` [sucralose], the dissociation constant Kd was 12.8 µM.

Take `O=C1NS(=O)(=O)c2ccccc21` [saccharin]: the affinity, expressed as Kd, was 12.9 µM.

The compound `COC(=O)[C@H](Cc1ccccc1)NC(=O)[C@@H](N)CC(=O)O` [aspartame] (H-Asp-Phe-OMe) came in with a dissociation constant Kd of 11.8 µM.

By Kd is commonly meant the concentration at which binding is half-saturated. Read a low Kd as a tighter complex.
